Reference: US20240199546A1, “INHIBITORS OF SOLUTE CARRIER FAMILY 6A MEMBER 19 (SLC6A19) AND METHODS OF USE THEREOF” (Maze Therapeutics, Inc., priority 2022, published 2024)

What was measured:
human SLC6A19 and TMEM27 [1] = molecular target: T1, human SLC6A19 and TMEM27 (Homo sapiens, UniProt Q695T7); experiment: Radiolabelled (3H) leucine uptake in CHO cells with doxycycline-inducible expression of human SLC6A19 and TMEM27 (Example B-1); type: cell-based; conditions: CHO cells with doxycycline-inducible expression of human SLC6A19 and TMEM27, read-out: SLC6A19_Radioligand Uptake Assay IC50
T1 construct: expressed in transfected cells
T1 sequence (Q695T7 1-634): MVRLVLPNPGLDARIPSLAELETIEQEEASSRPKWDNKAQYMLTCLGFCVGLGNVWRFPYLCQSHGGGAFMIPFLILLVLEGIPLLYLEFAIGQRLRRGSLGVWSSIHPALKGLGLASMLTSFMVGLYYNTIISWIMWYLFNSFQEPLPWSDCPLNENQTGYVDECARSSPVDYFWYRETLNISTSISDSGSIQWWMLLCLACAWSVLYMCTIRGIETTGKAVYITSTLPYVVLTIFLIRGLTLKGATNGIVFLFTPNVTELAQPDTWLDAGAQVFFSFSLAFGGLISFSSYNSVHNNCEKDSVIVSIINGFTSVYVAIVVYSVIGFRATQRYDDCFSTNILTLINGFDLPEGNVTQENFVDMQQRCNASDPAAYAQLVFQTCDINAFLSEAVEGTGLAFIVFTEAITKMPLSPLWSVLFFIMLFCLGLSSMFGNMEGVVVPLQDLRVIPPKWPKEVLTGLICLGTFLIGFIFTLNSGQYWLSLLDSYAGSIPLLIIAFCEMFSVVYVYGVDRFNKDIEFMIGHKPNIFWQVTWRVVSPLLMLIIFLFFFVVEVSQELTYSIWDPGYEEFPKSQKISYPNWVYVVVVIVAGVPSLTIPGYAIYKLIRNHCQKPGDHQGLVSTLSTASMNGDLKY
T1 sequence (Q9HBJ8 15-222 partner): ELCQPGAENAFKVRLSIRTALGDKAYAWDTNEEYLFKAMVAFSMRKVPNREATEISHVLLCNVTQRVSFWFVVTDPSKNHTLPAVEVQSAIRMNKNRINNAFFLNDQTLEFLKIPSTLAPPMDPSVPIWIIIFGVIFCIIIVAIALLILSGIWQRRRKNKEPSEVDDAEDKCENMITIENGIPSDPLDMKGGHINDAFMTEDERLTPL
How it was run: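 CHO cells were induced with doxycycline for 18 h at 37 °C, washed in HBSS, then exposed to compounds for 1 h: 8-point, 3-fold dilutions in duplicate, 0.5% DMSO final. Uptake measured by scintillation counting after 2 h shaking. Activity normalized with positive control as 0% and DMSO as 100%.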

human SLC6A19 and TMEM27 [2] = molecular target: T1, human SLC6A19 and TMEM27; experiment: 13C6,15N-isoleucine uptake in CHO cells with doxycycline-inducible expression of human SLC6A19 and TMEM27, RapidFire mass spectrometry (Example B-2); type: cell-based; conditions: read-out: SLC6A19_RapidFire Uptake Assay IC50
How it was run: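 Read-out is RapidFire mass-spec peak area of 13C6,15N-isoleucine taken up over 20 min at 37 °C, after 20 min compound pre-exposure in pH 7.2 HEPES-buffered saline. Cells: doxycycline-induced CHO co-expressing human SLC6A19 and TMEM27; compounds as duplicate 10-point 2-fold dilutions, positive control setting 0% activity.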

CCC(=O)NCc1cc2cc(F)c(OCc3coc(C)n3)cc2[nH]1 [Compound 550, N-((5-fluoro-6-((2-methyloxazol-4-yl)methoxy)-1H-indol-2-yl)methyl)propionamide]
IC50 (human SLC6A19 and TMEM27 [1]): 552 nM | IC50 (human SLC6A19 and TMEM27 [2]): 1040 nM

CC1(C(=O)NCc2cc3cc(Cl)c(OCc4ccon4)cc3[nH]2)CC1 [Compound 46, N-((5-chloro-6-(isoxazol-3-ylmethoxy)-1H-indol-2-yl)methyl)-1-methylcyclopropane-1-carboxamide]
IC50 (human SLC6A19 and TMEM27 [1]): 70 nM | IC50 (human SLC6A19 and TMEM27 [2]): 61 nM

Cn1ncc(COc2cc3[nH]c(CNC(=O)N4CCC4)cc3cc2Cl)n1 [Compound 405, N-((5-chloro-6-((2-methyl-2H-1,2,3-triazol-4-yl)methoxy)-1H-indol-2-yl)methyl)azetidine-1-carboxamide]
IC50 (human SLC6A19 and TMEM27 [1]): 305 nM | IC50 (human SLC6A19 and TMEM27 [2]): 367 nM

CC(=O)NCc1cc2cc(C)c(OCc3ccon3)cc2[nH]1 [Compound 235, N-((6-(isoxazol-3-ylmethoxy)-5-methyl-1H-indol-2-yl)methyl)acetamide]
IC50 (human SLC6A19 and TMEM27 [1]): 283 nM | IC50 (human SLC6A19 and TMEM27 [2]): 521 nM

CC(=O)NCc1cc2cc(F)c(OCc3coc(C)n3)cc2[nH]1 [Compound 236, N-((5-fluoro-6-((2-methyloxazol-4-yl)methoxy)-1H-indol-2-yl)methyl)acetamide]
IC50 (human SLC6A19 and TMEM27 [1]): 2990 nM | IC50 (human SLC6A19 and TMEM27 [2]): > 19300 nM

CNC(=O)NCc1cc2cc(Cl)c(OCc3cscn3)cc2[nH]1 [Compound 209, 1-((5-chloro-6-(thiazol-4-ylmethoxy)-1H-indol-2-yl)methyl)-3-methylurea]
IC50 (human SLC6A19 and TMEM27 [1]): 130 nM | IC50 (human SLC6A19 and TMEM27 [2]): 117 nM

CN(Cc1cn[nH]c1)C(=O)NCc1cc2ccc(OCc3ccon3)cc2[nH]1 [Compound 627, 1-((1H-pyrazol-4-yl)methyl)-3-((6-(isoxazol-3-ylmethoxy)-1H-indol-2-yl)methyl)-1-methylurea]
IC50 (human SLC6A19 and TMEM27 [1]): > 8730 nM | IC50 (human SLC6A19 and TMEM27 [2]): 12100 nM

CC1(C(=O)NCc2cc3cc(C(F)(F)F)c(OCc4ccon4)cc3[nH]2)CC1 [Compound 59, N-((6-(isoxazol-3-ylmethoxy)-5-(trifluoromethyl)-1H-indol-2-yl)methyl)-1-methylcyclopropane-1-carboxamide]
IC50 (human SLC6A19 and TMEM27 [1]): 214 nM | IC50 (human SLC6A19 and TMEM27 [2]): 153 nM

CC(=O)NCc1cc2cc(F)c(OCc3cccc(F)n3)cc2[nH]1 [Compound 226, N-((5-fluoro-6-((6-fluoropyridin-2-yl)methoxy)-1H-indol-2-yl)methyl)acetamide]
IC50 (human SLC6A19 and TMEM27 [1]): 1120 nM | IC50 (human SLC6A19 and TMEM27 [2]): 960 nM

CC(=O)NCc1cc2cc(Cl)c(OCc3ccno3)cc2[nH]1 [Compound 219, N-((5-chloro-6-(isoxazol-5-ylmethoxy)-1H-indol-2-yl)methyl)acetamide]
IC50 (human SLC6A19 and TMEM27 [1]): 134 nM | IC50 (human SLC6A19 and TMEM27 [2]): 103 nM

O=C(NCc1cc2cc(Cl)c(OCc3ccccn3)cc2[nH]1)C1CC1 [Compound 503, N-((5-chloro-6-(pyridin-2-ylmethoxy)-1H-indol-2-yl)methyl)cyclopropanecarboxamide]
IC50 (human SLC6A19 and TMEM27 [1]): 317 nM | IC50 (human SLC6A19 and TMEM27 [2]): 66.7 nM

CCc1c(CNC(=O)N2CCC2)[nH]c2cc(OCc3cscn3)c(Cl)cc12 [Compound 424, N-((5-chloro-3-ethyl-6-(thiazol-4-ylmethoxy)-1H-indol-2-yl)methyl)azetidine-1-carboxamide]
IC50 (human SLC6A19 and TMEM27 [1]): 1260 nM | IC50 (human SLC6A19 and TMEM27 [2]): 491 nM

O=C(NCc1cc2cc(Cl)c(CCc3ccon3)cc2[nH]1)N1CCCC1 [Compound 412, N-((5-chloro-6-(2-(isoxazol-3-yl)ethyl)-1H-indol-2-yl)methyl)pyrrolidine-1-carboxamide]
IC50 (human SLC6A19 and TMEM27 [1]): 289 nM | IC50 (human SLC6A19 and TMEM27 [2]): 154 nM

CC(C)(C)C(=O)NCc1cc2cc(Cl)c(OCc3ccon3)cc2[nH]1 [Compound 493, N-((5-chloro-6-(isoxazol-3-ylmethoxy)-1H-indol-2-yl)methyl)pivalamide]
IC50 (human SLC6A19 and TMEM27 [1]): 1440 nM | IC50 (human SLC6A19 and TMEM27 [2]): 1140 nM

CC1(C(=O)NCc2cc3cc(F)c(OCc4ccc5ccoc5c4)cc3[nH]2)CC1 [Compound 460, N-((6-(benzofuran-6-ylmethoxy)-5-fluoro-1H-indol-2-yl)methyl)-1-methylcyclopropane-1-carboxamide]
IC50 (human SLC6A19 and TMEM27 [1]): 1360 nM | IC50 (human SLC6A19 and TMEM27 [2]): 732 nM

CC(=O)NCc1cc2cc(F)c(OCc3ccno3)cc2[nH]1 [Compound 220, N-((5-fluoro-6-(isoxazol-5-ylmethoxy)-1H-indol-2-yl)methyl)acetamide]
IC50 (human SLC6A19 and TMEM27 [1]): 1550 nM | IC50 (human SLC6A19 and TMEM27 [2]): 3480 nM

CC1(C(=O)NCc2cc3cc(Cl)c(OCc4ccccn4)cc3[nH]2)CC1 [Compound 41, N-((5-chloro-6-(pyridin-2-ylmethoxy)-1H-indol-2-yl)methyl)-1-methylcyclopropane-1-carboxamide]
IC50 (human SLC6A19 and TMEM27 [1]): 261 nM | IC50 (human SLC6A19 and TMEM27 [2]): 71 nM

Cc1cc(COc2cc3[nH]c(CNC(=O)N4CCC4)cc3cc2Cl)on1 [Compound 404, N-((5-chloro-6-((3-methylisoxazol-5-yl)methoxy)-1H-indol-2-yl)methyl)azetidine-1-carboxamide]
IC50 (human SLC6A19 and TMEM27 [1]): 268 nM | IC50 (human SLC6A19 and TMEM27 [2]): 147 nM

Cc1cc(COc2cc3[nH]c(CNC(=O)C4(C)CC4)cc3cc2C(F)(F)F)no1 [Compound 58, 1-methyl-N-((6-((5-methylisoxazol-3-yl)methoxy)-5-(trifluoromethyl)-1H-indol-2-yl)methyl)cyclopropanecarboxamide]
IC50 (human SLC6A19 and TMEM27 [1]): 162 nM | IC50 (human SLC6A19 and TMEM27 [2]): 28 nM

CC1(C(=O)NCc2cc3ccc(OCc4ccc(F)nc4)cc3[nH]2)CC1 [Compound 34, N-((6-((6-fluoropyridin-3-yl)methoxy)-1H-indol-2-yl)methyl)-1-methylcyclopropane-1-carboxamide]
IC50 (human SLC6A19 and TMEM27 [1]): 602 nM | IC50 (human SLC6A19 and TMEM27 [2]): 615 nM

CC(=O)NCc1cc2cc(F)c(OCc3cc(C)no3)cc2[nH]1 [Compound 223, N-((5-fluoro-6-((3-methylisoxazol-5-yl)methoxy)-1H-indol-2-yl)methyl)acetamide]
IC50 (human SLC6A19 and TMEM27 [1]): 203 nM | IC50 (human SLC6A19 and TMEM27 [2]): 796 nM

Cc1cc2cc(CNC(=O)N3CCC3)[nH]c2cc1OCc1cscn1 [Compound 528, N-((5-methyl-6-(thiazol-4-ylmethoxy)-1H-indol-2-yl)methyl)azetidine-1-carboxamide]
IC50 (human SLC6A19 and TMEM27 [1]): 278 nM | IC50 (human SLC6A19 and TMEM27 [2]): 292 nM

CC(=O)NCc1cc2cc(Cl)c(OCc3cccc(F)n3)cc2[nH]1 [Compound 225, N-((5-chloro-6-((6-fluoropyridin-2-yl)methoxy)-1H-indol-2-yl)methyl)acetamide]
IC50 (human SLC6A19 and TMEM27 [1]): 156 nM | IC50 (human SLC6A19 and TMEM27 [2]): 80.8 nM

CC1(C(=O)NCc2cc3c(F)cc(OCc4cscn4)cc3[nH]2)CC1 [Compound 29, N-((4-fluoro-6-(thiazol-4-ylmethoxy)-1H-indol-2-yl)methyl)-1-methylcyclopropane-1-carboxamide]
IC50 (human SLC6A19 and TMEM27 [1]): 60 nM | IC50 (human SLC6A19 and TMEM27 [2]): 45 nM

CCC(=O)NCc1cc2cc(C)c(OCc3ccon3)cc2[nH]1 [Compound 530, N-((6-(isoxazol-3-ylmethoxy)-5-methyl-1H-indol-2-yl)methyl)propionamide]
IC50 (human SLC6A19 and TMEM27 [1]): 171 nM | IC50 (human SLC6A19 and TMEM27 [2]): 208 nM

CC(C)C(=O)NCc1cc2cc(F)c(OCc3cscn3)cc2[nH]1 [Compound 135, N-((5-fluoro-6-(thiazol-4-ylmethoxy)-1H-indol-2-yl)methyl)isobutyramide]
IC50 (human SLC6A19 and TMEM27 [1]): 82 nM | IC50 (human SLC6A19 and TMEM27 [2]): 49 nM

Cn1ncc(COc2cc3[nH]c(CNC(=O)C4CC4)cc3cc2F)n1 [Compound 433, N-((5-fluoro-6-((2-methyl-2H-1,2,3-triazol-4-yl)methoxy)-1H-indol-2-yl)methyl)cyclopropanecarboxamide]
IC50 (human SLC6A19 and TMEM27 [1]): 566 nM | IC50 (human SLC6A19 and TMEM27 [2]): 1500 nM

Cc1cnc(COc2cc3[nH]c(CNC(=O)C4(C)CC4)cc3cc2Cl)o1 [Compound 70, N-((5-chloro-6-((5-methyloxazol-2-yl)methoxy)-1H-indol-2-yl)methyl)-1-methylcyclopropane-1-carboxamide]
IC50 (human SLC6A19 and TMEM27 [1]): 117 nM | IC50 (human SLC6A19 and TMEM27 [2]): 62 nM

Cc1nc(COc2cc3[nH]c(CNC(=O)C4(C)CC4)cc3cc2F)co1 [Compound 547, N-((5-fluoro-6-((2-methyloxazol-4-yl)methoxy)-1H-indol-2-yl)methyl)-1-methylcyclopropane-1-carboxamide]
IC50 (human SLC6A19 and TMEM27 [1]): 363 nM | IC50 (human SLC6A19 and TMEM27 [2]): 314 nM

CC1(C(=O)NCc2cc3cc(Cl)c(OCc4ccon4)c(Cl)c3[nH]2)CC1 [Compound 346, N-((5,7-dichloro-6-(isoxazol-3-ylmethoxy)-1H-indol-2-yl)methyl)-1-methylcyclopropane-1-carboxamide]
IC50 (human SLC6A19 and TMEM27 [1]): > 9540 nM | IC50 (human SLC6A19 and TMEM27 [2]): > 50000 nM
